Marks after values point to notes of the source that are not given here.
System: female rats
Assay: 28-day repeated dose study, plasma metabolite profiling (GC-MS, LC-MS), female rats

3-Methoxytyrosine, plasma, treatment ratio versus control (day 7): 1.09
Arachidonic acid (C20:cis[5,8,11,14]4), plasma, treatment ratio versus control (day 7): 0.64*
Campesterol, plasma, treatment ratio versus control (day 7): 0.61*
Cholesterol, plasma, treatment ratio versus control (day 7): 0.65*
Choline plasmalogen No 03, plasma, treatment ratio versus control (day 7): 0.89*
Citrate, plasma, treatment ratio versus control (day 7): 0.83*
Docosahexaenoic acid (C22:cis[4,7,10,13,16,19]6), plasma, treatment ratio versus control (day 7): 0.73*
Docosapentaenoic acid (C22:cis[7,10,13,16,19]5), plasma, treatment ratio versus control (day 7): 0.67
Dodecanol, plasma, treatment ratio versus control (day 7): 0.59*
Elaidic acid (C18:trans[9]1), plasma, treatment ratio versus control (day 7): 0.74*
Glycerol phosphate, lipid fraction, plasma, treatment ratio versus control (day 7): 0.52*
Lysophosphatidylcholine (C20:4), plasma, treatment ratio versus control (day 7): 0.93
Metanephrine, plasma, treatment ratio versus control (day 7): 0.9
Phosphatidylcholine (C18:0,C18:1), plasma, treatment ratio versus control (day 7): 0.85
Phosphatidylcholine (C18:0,C22:6), plasma, treatment ratio versus control (day 7): 0.87*
Phosphatidylcholine No 04, plasma, treatment ratio versus control (day 7): 0.67*
Progesterone, plasma, treatment ratio versus control (day 7): 0.67
alpha-Tocopherol, plasma, treatment ratio versus control (day 7): 0.75
gamma-Linolenic acid (C18:cis[6,9,12]3), plasma, treatment ratio versus control (day 7): 0.76
myo-Inositol, lipid fraction, plasma, treatment ratio versus control (day 7): 0.63*
threo-Sphingosine, plasma, treatment ratio versus control (day 7): 0.56*
3-Methoxytyrosine, plasma, treatment ratio versus control (day 14): 1
Arachidonic acid (C20:cis[5,8,11,14]4), plasma, treatment ratio versus control (day 14): 0.71*
Campesterol, plasma, treatment ratio versus control (day 14): 0.66*
Cholesterol, plasma, treatment ratio versus control (day 14): 0.72*
Choline plasmalogen No 03, plasma, treatment ratio versus control (day 14): 0.77*
Citrate, plasma, treatment ratio versus control (day 14): 0.94
Docosahexaenoic acid (C22:cis[4,7,10,13,16,19]6), plasma, treatment ratio versus control (day 14): 0.78*
Docosapentaenoic acid (C22:cis[7,10,13,16,19]5), plasma, treatment ratio versus control (day 14): 0.97
Dodecanol, plasma, treatment ratio versus control (day 14): 0.84*
Elaidic acid (C18:trans[9]1), plasma, treatment ratio versus control (day 14): 0.71*
Glycerol phosphate, lipid fraction, plasma, treatment ratio versus control (day 14): 0.76
Lysophosphatidylcholine (C20:4), plasma, treatment ratio versus control (day 14): 0.93
Metanephrine, plasma, treatment ratio versus control (day 14): 0.61
Phosphatidylcholine (C18:0,C18:1), plasma, treatment ratio versus control (day 14): 0.8*
Phosphatidylcholine (C18:0,C22:6), plasma, treatment ratio versus control (day 14): 0.9
Phosphatidylcholine No 04, plasma, treatment ratio versus control (day 14): 0.8*
Progesterone, plasma, treatment ratio versus control (day 14): 0.45*
alpha-Tocopherol, plasma, treatment ratio versus control (day 14): 0.76*
gamma-Linolenic acid (C18:cis[6,9,12]3), plasma, treatment ratio versus control (day 14): 0.69
myo-Inositol, lipid fraction, plasma, treatment ratio versus control (day 14): 0.77*
threo-Sphingosine, plasma, treatment ratio versus control (day 14): 0.79
3-Methoxytyrosine, plasma, treatment ratio versus control (day 28): 1.09
Arachidonic acid (C20:cis[5,8,11,14]4), plasma, treatment ratio versus control (day 28): 0.78
Campesterol, plasma, treatment ratio versus control (day 28): 0.83
Cholesterol, plasma, treatment ratio versus control (day 28): 0.76
Choline plasmalogen No 03, plasma, treatment ratio versus control (day 28): 0.74*
Citrate, plasma, treatment ratio versus control (day 28): 0.89*
Docosahexaenoic acid (C22:cis[4,7,10,13,16,19]6), plasma, treatment ratio versus control (day 28): 0.75*
Docosapentaenoic acid (C22:cis[7,10,13,16,19]5), plasma, treatment ratio versus control (day 28): 1
Dodecanol, plasma, treatment ratio versus control (day 28): 0.86
Elaidic acid (C18:trans[9]1), plasma, treatment ratio versus control (day 28): 0.79
Glycerol phosphate, lipid fraction, plasma, treatment ratio versus control (day 28): 0.79
Lysophosphatidylcholine (C20:4), plasma, treatment ratio versus control (day 28): 0.87*
Metanephrine, plasma, treatment ratio versus control (day 28): 0.81
Phosphatidylcholine (C18:0,C18:1), plasma, treatment ratio versus control (day 28): 0.7*
Phosphatidylcholine (C18:0,C22:6), plasma, treatment ratio versus control (day 28): 0.99
Phosphatidylcholine No 04, plasma, treatment ratio versus control (day 28): 0.69*
Progesterone, plasma, treatment ratio versus control (day 28): 0.38*
alpha-Tocopherol, plasma, treatment ratio versus control (day 28): 0.61*
gamma-Linolenic acid (C18:cis[6,9,12]3), plasma, treatment ratio versus control (day 28): 0.73*
myo-Inositol, lipid fraction, plasma, treatment ratio versus control (day 28): 0.86
threo-Sphingosine, plasma, treatment ratio versus control (day 28): 0.79
Compound: CC#C[C@]1(O)CC[C@H]2[C@@H]3CCC4=CC(=O)CCC4=C3[C@@H](c3ccc(N(C)C)cc3)C[C@@]21C [Mifepristone, (11b,17b)-11-[4-(Dimethylamino)phenyl]-17-hydroxy-17-(1-propynyl)estra-4,9-dien-3-one]
